# Assays:
# MKK4 = target: T1, MKK4 (Homo sapiens, UniProt P45985); assay: KINOMEscan competition binding assay, MKK4 potency; settings: concentration of 100 nM
# T1 construct: S84/D399; host or cells: HEK-293
# T1 sequence (P45985 84-399): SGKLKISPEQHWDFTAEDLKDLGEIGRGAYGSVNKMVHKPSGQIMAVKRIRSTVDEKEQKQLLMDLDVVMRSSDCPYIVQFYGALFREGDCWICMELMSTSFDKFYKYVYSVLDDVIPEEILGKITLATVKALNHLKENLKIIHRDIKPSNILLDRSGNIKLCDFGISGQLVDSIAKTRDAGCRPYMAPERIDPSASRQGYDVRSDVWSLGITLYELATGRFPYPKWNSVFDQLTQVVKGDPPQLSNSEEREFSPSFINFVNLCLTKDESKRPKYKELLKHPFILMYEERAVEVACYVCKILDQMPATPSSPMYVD
# How it was run: (§1)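 DNA-tagged kinases expressed in HEK-293 cells compete between test compound and immobilized ligand on blocked beads. Bound kinase is eluted and quantified by qPCR of the DNA tag. Compounds were tested at the indicated final concentrations, prepared from 10 mM stocks.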
# MEKK2 = target: T2, MEKK2 (Homo sapiens, UniProt Q9Y2U5); assay: Radiometric protein kinase assay, MEKK2; format: biochemical; settings: substrate Casein, ATP 0.2 μM; read-out: MEKK2, potency derived from IC50-values
# T2 construct: purchased ProQinase #0583-0000-1
# T2 sequence (Q9Y2U5 1-619): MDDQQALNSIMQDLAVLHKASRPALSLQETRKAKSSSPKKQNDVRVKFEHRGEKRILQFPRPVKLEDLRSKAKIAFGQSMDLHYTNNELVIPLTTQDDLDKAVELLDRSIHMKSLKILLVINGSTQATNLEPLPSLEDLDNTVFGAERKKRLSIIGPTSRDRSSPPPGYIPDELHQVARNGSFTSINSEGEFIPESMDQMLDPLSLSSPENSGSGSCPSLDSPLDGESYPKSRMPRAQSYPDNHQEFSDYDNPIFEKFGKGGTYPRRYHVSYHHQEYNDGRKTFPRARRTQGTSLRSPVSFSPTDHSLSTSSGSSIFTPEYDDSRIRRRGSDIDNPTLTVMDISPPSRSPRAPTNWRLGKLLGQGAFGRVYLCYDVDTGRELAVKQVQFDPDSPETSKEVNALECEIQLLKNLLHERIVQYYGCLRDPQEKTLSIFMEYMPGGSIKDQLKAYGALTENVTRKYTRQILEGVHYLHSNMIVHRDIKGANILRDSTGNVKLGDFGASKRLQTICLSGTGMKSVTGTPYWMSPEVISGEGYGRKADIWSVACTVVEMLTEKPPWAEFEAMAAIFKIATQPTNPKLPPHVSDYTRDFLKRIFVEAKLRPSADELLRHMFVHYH
# How it was run: (§2)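 Kinase activity measured radiometrically: stopped reactions were captured on filter plates, washed with 150 mM H3PO4 and ethanol, and incorporated radioactivity counted by liquid scintillation.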
# MKK4 active = target: T3, MKK4 active (Homo sapiens, UniProt P45985); assay: Radiometric protein kinase assay, MKK4 active; format: biochemical; settings: substrate JNK1 KRKR, ATP 0.2 μM, read-out: MKK4, potency derived from IC50-values
# T3 construct: purchased ProQinase #0948-0000-1
# T3 sequence (P45985 1-399): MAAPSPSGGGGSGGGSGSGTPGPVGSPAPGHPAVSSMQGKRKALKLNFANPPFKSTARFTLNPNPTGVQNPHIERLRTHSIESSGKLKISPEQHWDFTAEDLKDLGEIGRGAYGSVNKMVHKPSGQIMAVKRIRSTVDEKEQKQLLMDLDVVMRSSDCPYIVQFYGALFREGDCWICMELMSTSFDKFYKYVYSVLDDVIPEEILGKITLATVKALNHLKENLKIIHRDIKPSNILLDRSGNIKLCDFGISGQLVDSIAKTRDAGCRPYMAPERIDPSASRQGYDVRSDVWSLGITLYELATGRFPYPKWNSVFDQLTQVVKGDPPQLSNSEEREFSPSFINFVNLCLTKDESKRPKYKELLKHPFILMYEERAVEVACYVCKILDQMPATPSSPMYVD
# How it was run: as §2
# MKK4-MEKK2 mix = target: T4, MKK4-MEKK2 mix (Homo sapiens, UniProt P45985); assay: Radiometric protein kinase assay, MEKK2 dependent MKK4 activation (cascade); format: biochemical; settings: substrate JNK1 KRKR, ATP 0.2 μM, read-out: Cascade, potency derived from IC50-values
# T4 construct: MEKK2, recombinant, active: ProQinase product #0583-0000-1
# T4 sequence (P45985 2-399): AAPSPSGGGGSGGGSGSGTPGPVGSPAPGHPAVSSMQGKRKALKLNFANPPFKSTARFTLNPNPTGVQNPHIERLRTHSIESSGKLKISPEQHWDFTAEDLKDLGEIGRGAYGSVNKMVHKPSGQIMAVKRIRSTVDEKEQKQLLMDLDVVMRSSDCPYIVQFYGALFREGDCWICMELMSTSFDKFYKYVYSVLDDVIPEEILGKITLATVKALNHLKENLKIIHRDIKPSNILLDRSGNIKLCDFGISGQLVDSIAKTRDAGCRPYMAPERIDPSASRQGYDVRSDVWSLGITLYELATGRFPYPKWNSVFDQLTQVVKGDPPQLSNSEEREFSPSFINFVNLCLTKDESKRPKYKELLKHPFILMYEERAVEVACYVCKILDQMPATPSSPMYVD
# How it was run: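 MKK4 (1 μM) was activated by MEKK2 (50 nM) in 50 mM HEPES pH 7.5, 50 mM NaCl, 3.8 mM MgCl2, 2.5 mM DTT and 10% glycerol with ATP, in the presence of compound at 1% final DMSO. Kinase activity was measured radiometrically by filter capture, H3PO4 washes and scintillation counting.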
# JNK1 = target: T5, JNK1 (Homo sapiens, UniProt P45983); assay: KINOMEscan competition binding assay, selectivity against off-target JNK1; settings: concentration of 100 nM
# T5 construct: M1/Q384; host or cells: HEK-293
# How it was run: as §1
# BRaf = BRaf (Homo sapiens, UniProt P15056); assay: KINOMEscan competition binding assay, selectivity against off-target BRaf; settings: concentration of 100 nM
# How it was run: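 Competition binding: test compound competes with an immobilized ligand for DNA-tagged BRaf, and kinase captured on the ligand is quantified by qPCR of the DNA tag. Compounds from 10 mM stocks were tested at the indicated final concentrations.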
# MKK7 = target: T6, MKK7 (Homo sapiens, UniProt O14733); assay: KINOMEscan competition binding assay, selectivity against off-target MKK7; settings: concentration of 100 nM
# T6 construct: M1/R419; host or cells: HEK-293
# T6 sequence (O14733 1-419): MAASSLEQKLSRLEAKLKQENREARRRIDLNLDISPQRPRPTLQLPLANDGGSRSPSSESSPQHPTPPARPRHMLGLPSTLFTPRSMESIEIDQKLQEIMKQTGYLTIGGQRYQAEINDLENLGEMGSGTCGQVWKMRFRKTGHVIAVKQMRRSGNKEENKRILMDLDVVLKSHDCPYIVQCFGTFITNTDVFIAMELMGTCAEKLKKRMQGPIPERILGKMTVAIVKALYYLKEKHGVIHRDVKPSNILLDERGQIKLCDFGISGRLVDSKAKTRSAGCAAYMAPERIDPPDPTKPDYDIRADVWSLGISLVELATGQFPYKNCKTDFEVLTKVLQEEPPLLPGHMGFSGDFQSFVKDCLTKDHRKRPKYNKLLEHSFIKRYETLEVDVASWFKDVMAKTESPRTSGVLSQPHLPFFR
# How it was run: as §1
# Chain of BRaf (P15056 whole entry): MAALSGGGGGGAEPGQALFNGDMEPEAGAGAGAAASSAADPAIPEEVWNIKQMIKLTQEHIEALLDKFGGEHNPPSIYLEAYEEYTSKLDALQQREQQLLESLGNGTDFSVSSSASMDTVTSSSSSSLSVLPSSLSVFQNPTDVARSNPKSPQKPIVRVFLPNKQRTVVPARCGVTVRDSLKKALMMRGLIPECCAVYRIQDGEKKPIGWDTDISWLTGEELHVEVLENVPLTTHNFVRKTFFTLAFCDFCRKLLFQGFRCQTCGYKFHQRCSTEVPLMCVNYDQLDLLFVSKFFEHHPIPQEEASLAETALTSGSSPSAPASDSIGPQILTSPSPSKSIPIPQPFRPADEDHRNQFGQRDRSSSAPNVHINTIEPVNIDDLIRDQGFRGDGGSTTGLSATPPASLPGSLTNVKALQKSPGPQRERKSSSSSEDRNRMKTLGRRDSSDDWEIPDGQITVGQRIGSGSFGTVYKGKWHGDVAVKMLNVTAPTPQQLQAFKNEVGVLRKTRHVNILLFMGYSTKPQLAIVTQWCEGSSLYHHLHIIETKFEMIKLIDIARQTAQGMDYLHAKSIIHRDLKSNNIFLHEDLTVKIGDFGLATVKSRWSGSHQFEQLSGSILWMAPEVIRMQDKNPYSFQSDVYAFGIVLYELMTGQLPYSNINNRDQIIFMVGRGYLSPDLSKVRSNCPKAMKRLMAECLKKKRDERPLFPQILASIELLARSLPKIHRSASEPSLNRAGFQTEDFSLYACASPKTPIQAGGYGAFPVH
# T5 sequence (P45983 1-384 isoform P45983-2): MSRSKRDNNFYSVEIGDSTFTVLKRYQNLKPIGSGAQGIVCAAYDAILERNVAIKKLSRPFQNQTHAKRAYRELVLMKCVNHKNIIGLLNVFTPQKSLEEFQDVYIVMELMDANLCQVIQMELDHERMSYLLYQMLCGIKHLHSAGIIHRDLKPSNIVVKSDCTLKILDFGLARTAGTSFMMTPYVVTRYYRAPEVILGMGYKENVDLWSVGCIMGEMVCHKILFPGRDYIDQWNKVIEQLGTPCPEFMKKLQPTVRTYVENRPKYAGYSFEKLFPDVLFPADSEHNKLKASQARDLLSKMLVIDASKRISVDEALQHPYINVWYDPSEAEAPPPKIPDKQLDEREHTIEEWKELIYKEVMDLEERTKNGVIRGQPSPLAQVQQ
smiles,measurement,setting,value
"CCCS(=O)(=O)Nc1ccc(F)c(C(=O)c2n[nH]c3ncc(-c4ccc(S(=O)(=O)NCC(O)CO)cc4)cc23)c1F (stereo not drawn) [Example 51j, 4-(3-(2,6-difluoro-3-(propylsulfonamido)benzoyl)-1H-pyrazolo[3,4-b]pyridin-5-yl)-N-(2,3-dihydroxypropyl)benzenesulfonamide]","MKK4, residual percent of control binding (PoC)",MKK4,++ (1 ≤ PoC < 10)
same,IC50,MEKK2,> 10000 nM
same,IC50,MKK4 active,< 500 nM
same,IC50,MKK4-MEKK2 mix,1000 to 10000 nM
same,"Selectivity vs. JNK1, ratio PoC(JNK1)/PoC(MKK4)",JNK1,+++ (PoC(JNK1)/PoC(MKK4) ≥ 30)
same,"Selectivity vs. BRaf, ratio PoC(BRaf)/PoC(MKK4)",BRaf,O (PoC(BRaf)/PoC(MKK4) < 3)
same,"Selectivity vs. MKK7, ratio PoC(MKK7)/PoC(MKK4)",MKK7,+++ (PoC(MKK7)/PoC(MKK4) ≥ 30)
"CCCS(=O)(=O)Nc1ccc(F)c(C(=O)c2n[nH]c3ncc(-c4ccc(S(=O)(=O)NC(C)=O)cc4)cc23)c1F [Example 51k, N-((4-(3-(2,6-difluoro-3-(propylsulfonamido)benzoyl)-1H-pyrazolo[3,4-b]pyridin-5-yl)phenyl)sulfonyl)acetamide]","MKK4, residual percent of control binding (PoC)",MKK4,+++ (PoC < 1)
same,IC50,MEKK2,> 10000 nM
same,IC50,MKK4 active,< 500 nM
same,IC50,MKK4-MEKK2 mix,< 500 nM
same,"Selectivity vs. JNK1, ratio PoC(JNK1)/PoC(MKK4)",JNK1,+++ (PoC(JNK1)/PoC(MKK4) ≥ 30)
same,"Selectivity vs. BRaf, ratio PoC(BRaf)/PoC(MKK4)",BRaf,O (PoC(BRaf)/PoC(MKK4) < 3)
same,"Selectivity vs. MKK7, ratio PoC(MKK7)/PoC(MKK4)",MKK7,+++ (PoC(MKK7)/PoC(MKK4) ≥ 30)
"CCCS(=O)(=O)Nc1ccc(F)c(C(=O)c2n[nH]c3ncc(-c4ccc(C(=O)NCC(O)CO)cc4)cc23)c1F (stereo not drawn) [Example 51l, 4-(3-(2,6-difluoro-3-(propylsulfonamido)benzoyl)-1H-pyrazolo[3,4-b]pyridin-5-yl)-N-(2,3-dihydroxypropyl)benzamide]","MKK4, residual percent of control binding (PoC)",MKK4,+++ (PoC < 1)
same,IC50,MEKK2,1000 to 10000 nM
same,IC50,MKK4 active,500 to 1000 nM
same,IC50,MKK4-MEKK2 mix,1000 to 10000 nM
same,"Selectivity vs. JNK1, ratio PoC(JNK1)/PoC(MKK4)",JNK1,+++ (PoC(JNK1)/PoC(MKK4) ≥ 30)
same,"Selectivity vs. BRaf, ratio PoC(BRaf)/PoC(MKK4)",BRaf,O (PoC(BRaf)/PoC(MKK4) < 3)
same,"Selectivity vs. MKK7, ratio PoC(MKK7)/PoC(MKK4)",MKK7,+++ (PoC(MKK7)/PoC(MKK4) ≥ 30)

# Reference: patent US12264158B2, “Protein kinase MKK4 inhibitors for promoting liver regeneration or reducing or preventing hepatocyte death” (HEPAREGENIX GMBH, priority 2018, dated 2025)
